Assay results as given in patent US9216973B2, “Insecticidal compounds” (Syngenta Participations AG, priority 2008, dated 2015).

What follows are molecules tested on Spodoptera littoralis (Egyptian cotton leafworm) (assay: Spodoptera littoralis cotton leaf disc spray test). Settings: foliar, 72 h, 200 ppm spray on cotton leaf discs, L1 larvae, mortality, feeding behavior, growth regulation 3 days after treatment.
Assay type: in vivo
Method: This Example illustrates the insecticidal and acaricidal properties of compounds of formula (I). The tests were performed as follows:
Spodoptera littoralis (Egyptian cotton leafworm):
Cotton leaf discs were placed on agar in a 24-well microtiter plate and sprayed with test solutions at an application rate of 200 ppm. After drying, the leaf discs were infested with 5 L1 larvae. The samples were checked for mortality, feeding behavior, and growth regulation 3 days after treatment (DAT). The following compound gave at least 80% control of Spodoptera littoralis: A1, A2, A5, A6, A7, A8, A10, A11, A12, A13, A14, A15, A16, A17, A18, A19, A21, A22, A23, A24, A25, A30, A31, A32, A33, A34, A35, A39, A40, A41 A42, A43, A44, A45, A46, A47, A48, A49, A50, A51, A53, A54, A55, A59, A60, A61, A62. Heliothis virescens (Tobacco budworm): Eggs (0-24 h old) were placed in 24-well microtiter plate on artificial diet and treated with test solutions at an application rate of 200 ppm (concentration in well 18 ppm) by pipetting. After an incubation period of 4 days, samples were checked for egg mortality, larval mortality, and growth regulation. The following compound gave at least 80% control of Heliothis virescens: A1, A2, A3, A4, A5, A6, A7, A8, A10, A11, A12, A13, A14, A15, A16, A18, A19, A21, A22, A24, A25, A30, A31, A32, A33, A34, A35, A37, A38, A39, A40, A42, A43, A44, A45, A46, A47, A48, A49, A50, A51, A55, AA57, A58, A59, A60, A61, A62. Plutella xylostella (Diamond back moth): 24-well microtiter plate (MTP) with artificial diet was treated with test solutions at an application rate of 200 ppm (concentration in well 18 ppm) by pipetting. After drying, the MTP's were infested with L2 larvae (7-12 per well). After an incubation period of 6 days, samples were checked for larval mortality and growth regulation. The following compound gave at least 80% control of Plutella xylostella: A1, A2, A5, A6, A7, A8, A9, A10, A11, A12, A13, A14, A15, A16, A17, A18, A19, A20, A21, A22, A24, A25, A30, A31, A32, A33, A34, A35, A37, A38, A39, A40, A42, A43, A44, A45, A46, A47, A48, A49, A50, A51, A52, A53, A54, A55, A57, A58, A59, A60, A61, A62, B3. Diabrotica balteata (Corn root worm): A 24-well microtiter plate (MTP) with artificial diet was treated with test solutions at an application rate of 200 ppm (concentration in well 18 ppm) by pipetting. After drying, the MTP's were infested with L2 larvae (6-10 per well). After an incubation period of 5 days, samples were checked for larval mortality and growth regulation. The following compound gave at least 80% control of Diabrotica balteata: A1, A2, A5, A6, A7, A10, A11, A12, A13, A14, A15, A16, A17, A18, A19, A21, A22, A24, A25, A30, A31, A32, A33, A34, A35, A38, A39, A40, A42, A43, A44, A45, A46, A47, A48, A49, A50, A59, A60, A61, A62. Thrips tabaci (Onion thrips): Sunflower leaf discs were placed on agar in a 24-well microtiter plate and sprayed with test solutions at an application rate of 200 ppm. After drying, the leaf discs were infested with an […] population of mixed ages. After an incubation period of 7 days, samples were checked for mortality. The following compounds gave at least 80% control of Thrips tabaci: A1, A2, A5, A6, A7, A8, A10, A12, A13, A14, A15, A16, A17, A18, A19, A21, A24, A25, A30, A31, A32, A33, A34, A35, A39, A42, A43, A44, A45, A46, A47, A48, A49, A50, A51, A53, A54, A57, A58, A59, A60, A61, A62. Tetranychus urticae (Two-spotted spider mite): Bean leaf discs on agar in 24-well microtiter plates were sprayed with test solutions at an application rate of 200 ppm. After drying, the leaf discs are infested with mite populations of mixed ages. 8 days later, discs are checked for egg mortality, larval mortality, and adult mortality. […]
In the case of `CC1(NC(=O)c2ccc(C3=NOC(c4cc(Cl)cc(Cl)c4)(C(F)(F)F)C3)c3ccccc23)CSC1` (centres unmarked) [A1], the pest or weed control at 200 ppm is reported as ≥ 80%. With `O=C(NC1CSC1)c1ccc(C2=NOC(c3cc(Cl)cc(Cl)c3)(C(F)(F)F)C2)c2ccccc12` (centres unmarked) [A2] the pest or weed control at 200 ppm was ≥ 80%. For `Cc1cc(C2=NOC(c3cc(Cl)cc(Cl)c3)(C(F)(F)F)C2Br)ccc1C(=O)NC1(C)CSC1` (centres unmarked) [A5], the pest or weed control at 200 ppm was ≥ 80%. In the case of `Cc1cc(C2=NOC(c3cc(Cl)cc(Cl)c3)(C(F)(F)F)C2Br)ccc1C(=O)NC1CSC1` (centres unmarked) [A6], the pest or weed control at 200 ppm is reported as ≥ 80%. In the case of `Cc1cc(C2=NOC(c3cc(Cl)cc(Cl)c3)(C(F)(F)F)C2Br)ccc1C(=O)NC1C[S+]([O-])C1` (centres unmarked) [A7], the pest or weed control at 200 ppm is reported as ≥ 80%. `Cc1cc(N2CC(c3cc(Cl)cc(Cl)c3)(C(F)(F)F)OC2=O)ccc1C(=O)NC1C[S+]([O-])C1` (centres unmarked) [A10] was tested, and the pest or weed control at 200 ppm was ≥ 80%. With `Cc1cc(N2CC(c3cc(Cl)cc(Cl)c3)(C(F)(F)F)OC2=O)ccc1C(=O)NC1CSC1` (centres unmarked) [A11] the pest or weed control at 200 ppm was ≥ 80%. For `Cc1cc(C2=NN(C)C(c3cc(Cl)cc(Cl)c3)(C(F)(F)F)C2)ccc1C(=O)NC1(C)CSC1` (centres unmarked) [A12], the pest or weed control at 200 ppm was ≥ 80%. `Cc1cc(C2=NN(C)C(c3cc(Cl)cc(Cl)c3)(C(F)(F)F)C2)ccc1C(=O)NC1C[S+]([O-])C1` (centres unmarked) [A13] was tested, and the pest or weed control at 200 ppm was ≥ 80%. With `Cc1cc(C2=NN(C)C(c3cc(Cl)cc(Cl)c3)(C(F)(F)F)C2)ccc1C(=O)NC1CSC1` (centres unmarked) [A14] the pest or weed control at 200 ppm was ≥ 80%. `O=C(NC1CS(=O)(=O)C1)c1ccc(C2=NOC(c3cc(Cl)cc(Cl)c3)(C(F)(F)F)C2)c2ccccc12` (centres unmarked) [A15] was tested, and the pest or weed control at 200 ppm was ≥ 80%. With `O=C(NC1C[S+]([O-])C1)c1ccc(C2=NOC(c3cc(Cl)cc(Cl)c3)(C(F)(F)F)C2)c2ccccc12` (centres unmarked) [A16] the pest or weed control at 200 ppm was ≥ 80%. `Cc1cc(C2=NOC(c3cc(Cl)cc(Cl)c3)(C(F)(F)F)O2)ccc1C(=O)NC1CSC1` (centres unmarked) [A17] was tested, and the pest or weed control at 200 ppm was ≥ 80%. For `Cc1cc(C2CC(c3cc(Cl)cc(Cl)c3)(C(F)(F)F)ON2C)ccc1C(=O)NC1C[S+]([O-])C1` (centres unmarked) [A18], the pest or weed control at 200 ppm was ≥ 80%. For `Cc1cc(C2CC(c3cc(Cl)cc(Cl)c3)(C(F)(F)F)ON2C)ccc1C(=O)NC1CS(=O)(=O)C1` (centres unmarked) [A19], the pest or weed control at 200 ppm was ≥ 80%. For `Cc1cc(C2CC(c3cc(Cl)cc(Cl)c3)(C(F)(F)F)ON2C)ccc1C(=O)NC1CSC1` (centres unmarked) [A21], the pest or weed control at 200 ppm was ≥ 80%. `O=C(NC1CS(=O)(=O)C1)c1ccc(C2=NOC(c3cc(Cl)cc(Cl)c3)(C(F)(F)F)C2)c2nsnc12` (centres unmarked) [A22] was tested, and the pest or weed control at 200 ppm was ≥ 80%. With `Cc1cc(C2=NOC(c3cc(Cl)cc(Cl)c3)(C(F)(F)F)C2Cl)ccc1C(=O)NC1CS(=O)(=O)C1` (centres unmarked) [A32] the pest or weed control at 200 ppm was ≥ 80%. For `Cc1cc(C2=NOC(c3cc(Cl)cc(Cl)c3)(C(F)(F)F)C2Cl)ccc1C(=O)NC1(C)CSC1` (centres unmarked) [A33], the pest or weed control at 200 ppm was ≥ 80%. `Cc1cc(C2=NOC(c3cc(Cl)cc(Cl)c3)(C(F)(F)F)C2Cl)ccc1C(=O)NC1C[S+]([O-])C1` (centres unmarked) [A34] was tested, and the pest or weed control at 200 ppm was ≥ 80%. In the case of `O=C(NC1CS(=O)(=O)C1)c1ccc(C2=NOC(c3cc(Cl)cc(Cl)c3)(C(F)(F)F)C2Br)c2ccccc12` (centres unmarked) [A42], the pest or weed control at 200 ppm is reported as ≥ 80%. In the case of `CC1(NC(=O)c2ccc(C3=NOC(c4cc(Cl)cc(Cl)c4)(C(F)(F)F)C3Br)c3ccccc23)CSC1` (centres unmarked) [A43], the pest or weed control at 200 ppm is reported as ≥ 80%. `O=C(NC1C[S+]([O-])C1)c1ccc(C2=NOC(c3cc(Cl)cc(Cl)c3)(C(F)(F)F)C2Br)c2ccccc12` (centres unmarked) [A44] was tested, and the pest or weed control at 200 ppm was ≥ 80%. In the case of `Cc1cc(C2=NCC(c3cc(Cl)cc(Cl)c3)(C(F)(F)F)C2)ccc1C(=O)NC1CS(=O)(=O)C1` (centres unmarked) [A46], the pest or weed control at 200 ppm is reported as ≥ 80%. `Cc1cc(C2=NCC(c3cc(Cl)cc(Cl)c3)(C(F)(F)F)C2)ccc1C(=O)NC1(C)CSC1` (centres unmarked) [A47] was tested, and the pest or weed control at 200 ppm was ≥ 80%. For `Cc1cc(C2=NCC(c3cc(Cl)cc(Cl)c3)(C(F)(F)F)C2)ccc1C(=O)NC1C[S+]([O-])C1` (centres unmarked) [A48], the pest or weed control at 200 ppm was ≥ 80%. `Cc1cc(C2=NCC(c3cc(Cl)cc(Cl)c3)(C(F)(F)F)C2)ccc1C(=O)NC1CSC1` (centres unmarked) [A49] was tested, and the pest or weed control at 200 ppm was ≥ 80%. `Cc1cc(C2=NOC(c3cc(Cl)cc(Cl)c3)(C(F)(F)F)C2O)ccc1C(=O)NC1CS(=O)(=O)C1` (centres unmarked) [A51] was tested, and the pest or weed control at 200 ppm was ≥ 80%. `Cc1cc(C2=NOC(c3cc(Cl)cc(Cl)c3)(C(F)(F)F)C2O)ccc1C(=O)NC1C[S+]([O-])C1` (centres unmarked) [A53] was tested, and the pest or weed control at 200 ppm was ≥ 80%. With `Cc1cc(C2=NOC(c3cc(Cl)cc(Cl)c3)(C(F)(F)F)C2O)ccc1C(=O)NC1CSC1` (centres unmarked) [A54] the pest or weed control at 200 ppm was ≥ 80%. `Cc1cc(C2=NOC(c3cc(Cl)cc(Cl)c3)(C(F)(F)F)/C2=N/O)ccc1C(=O)NC1CS(=O)(=O)C1` (centres unmarked) [A55] was tested, and the pest or weed control at 200 ppm was ≥ 80%. With `Cc1cc(C2=NOC(c3cc(Cl)cc(Cl)c3)(C(F)(F)F)C2F)ccc1C(=O)NC1CS(=O)(=O)C1` (centres unmarked) [A59] the pest or weed control at 200 ppm was ≥ 80%. For `Cc1cc(C2=NOC(c3cc(Cl)cc(Cl)c3)(C(F)(F)F)C2F)ccc1C(=O)NC1(C)CSC1` (centres unmarked) [A60], the pest or weed control at 200 ppm was ≥ 80%. For `Cc1cc(C2=NOC(c3cc(Cl)cc(Cl)c3)(C(F)(F)F)C2F)ccc1C(=O)NC1CSC1` (centres unmarked) [A61], the pest or weed control at 200 ppm was ≥ 80%. With `Cc1cc(C2=NOC(c3cc(Cl)cc(Cl)c3)(C(F)(F)F)C2F)ccc1C(=O)NC1C[S+]([O-])C1` (centres unmarked) [A62] the pest or weed control at 200 ppm was ≥ 80%.

Same assay, conditions: same protocol, 200 ppm
For `Cc1nc2c(C3=NOC(c4cc(Cl)cc(Cl)c4)(C(F)(F)F)C3)ccc(C(=O)NC3CS(=O)(=O)C3)c2o1` (centres unmarked) [A26], the “effect on mortality, feeding behavior, or growth regulation” value (shortened to “effect on mortality, feeding behavior”) was “little or no effect”. For `Cc1nc2c(C3=NOC(c4cc(Cl)cc(Cl)c4)(C(F)(F)F)C3)ccc(C(=O)NC3(C)CSC3)c2o1` (centres unmarked) [A27], the “effect on mortality, feeding behavior” value was “little or no effect”. For `Cc1nc2c(C3=NOC(c4cc(Cl)cc(Cl)c4)(C(F)(F)F)C3)ccc(C(=O)NC3C[S+]([O-])C3)c2o1` (centres unmarked) [A28], the “effect on mortality, feeding behavior” value was “little or no effect”. With `Cc1nc2c(C3=NOC(c4cc(Cl)cc(Cl)c4)(C(F)(F)F)C3)ccc(C(=O)NC3CSC3)c2o1` (centres unmarked) [A29] the “effect on mortality, feeding behavior” value was “little or no effect”. In the case of `CC1(NC(=O)c2cccc3c(C4=NOC(c5cc(Cl)cc(Cl)c5)(C(F)(F)F)C4)cccc23)CSC1` (centres unmarked) [A36], the “effect on mortality, feeding behavior” value is reported as “little or no effect”. With `Cc1cc(C2=NOC(c3cc(Cl)cc(Cl)c3)(C(F)(F)F)/C2=N/O)ccc1C(=O)NC1(C)CSC1` (centres unmarked) [A56] the “effect on mortality, feeding behavior” value was “little or no effect”.
